Consider 13 compounds from US7163959B2, “Prostagladin derivatives for the treatment of glaucoma or ocular hypertension” (priority 1990, dated 2007).

The test system of one series is cynomolgus monkeys. Nature of the series: Intraocular pressure (pneumatonometer) in cynomolgus monkeys. The format is in vivo, cynomolgus monkey. The note with it: for Intraocular pressure, time after administration 0 hours / Intraocular pressure, time after administration 1–2 hours / Intraocular pressure, time after administration 3–4 hours / Intraocular pressure, time after administration 6 hours: cynomolgus monkeys, experimental eye (E), topical, dose μg: PGF2α-IE 1.5, (1) 3.2, (2) 3.2, (9) 10.4, (10) 3.1, (8) 3.2; for Intraocular pressure, time after administration 0 hours: baseline; for Intraocular pressure lowering effect, in words: monkeys (primates), topical (Table V). As for the experimental part:
(§1) The intraocular pressur (IOP) was determined in animals with a pneumatonometer (Digilab Modular One™, Bio Rad), specially calibrated for the eye of the particular species. The cornea was anaesthetized with 1–2 drops of oxibuprocain before each XOP measurement. In healthy human volunteers IOP was measured with applanation tonometry or with an air puff tonometer (Keeler pulsair). For applanation tonometry either a pneumatonometer (Digilab) or Goldmann's applanation tonometer mounted on a slit lamp microscope was used. The cornea was anaesthetized with oxibuprocain before each measurement with applanation tonometry. No local anaesthesia was employed before measurement with the pulsair tonometer.

For a further series, the system named is rabbit eye. Briefly: Conjunctival hyperemia after topical application in rabbits. The format is in vivo. The note with it: for Conjunctival hyperemia, in words: topical (Table IV); for Degree of hyperemia: topical, conjunctival hyperemia scale 0 to 4, dose 0.5 μg, PGF2α-IE 0.1 μg. The protocol: Conjunctival hyperemia after topical application of the test substances was evaluated in rabbits. […] Conjunctival hyperemia was evaluated on a scale from 0 to 4, 0 indicating complete absence of any hyperemia, and 4 indicating marked hyperemia with conjunctival chemosis.

For series [1], the system named is healthy human volunteers. Nature of the series: Intraocular pressure (tonometry) in healthy human volunteers. The conditions noted are these: for Effect on intraocular pressure, in words: healthy human volunteers (Table VI); for Intraocular pressure, time after administration 0 hours / Intraocular pressure, time after administration 4 hours / Intraocular pressure, time after administration 6 hours / Intraocular pressure, time after administration 8 hours: healthy human volunteers, Exp eye, dose μg: (2) 1, (7) 10, (9) 1, (10) 5; for Intraocular pressure, time after administration 0 hours: baseline; for Intraocular pressure, time after administration 0 hours / Intraocular pressure, time after administration 4 hours / Intraocular pressure, time after administration 6 hours: (3) 10. The format is in vivo. As for the experimental part:
as §1

Series [2] deals with healthy human volunteers. Briefly: Ocular side effects (discomfort, hyperemia) in healthy human volunteers. The conditions noted are these: for Irritating effect (ocular discomfort), in words: healthy human volunteers; for Conjunctival/episcleral hyperemia, in words: in man.
The next series deals with cat eye. Nature of the series: Ocular discomfort (irritation) after topical application in cats. The conditions noted are these: topical (Table III).
Another series concerns cat eyes. Nature of the series: Intraocular pressure (pneumatonometer) in cats. It counts as in vivo. The conditions noted are these: for Intraocular pressure, time after administration 0 hours / Intraocular pressure, time after administration 1–2 hours / Intraocular pressure, time after administration 3–4 hours / Intraocular pressure, time after administration 6 hours: cat eyes, experimental eye (E), topical, dose μg: (4) 5, (20) 1; for Intraocular pressure, time after administration 0 hours: baseline; for Intraocular pressure lowering effect, in words: cats, topical (Table V). As for the experimental part:
as §1

For “16-[4-(methoxy)-phenyl]-17,18,19,20-tetranor-PGF2α-isopropylester [Substance 8]”, in the series with cynomolgus monkeys, the “Intraocular pressure, time after administration 0 hours” value is reported as “E 11.2 ± 0.9 mmHg”; the “Intraocular pressure, time after administration 1–2 hours” value was determined as 10.5 ± 1.3 mmHg; the “Intraocular pressure, time after administration 3–4 hours” value worked out at 9.8 ± 1.4 mmHg; the “Intraocular pressure, time after administration 6 hours” value came to 9.2 ± 0.9 mmHg.

Take `CC(C)OC(=O)CCC/C=C\C[C@@H]1[C@@H](/C=C/C(=O)CCc2ccccc2)[C@H](O)C[C@@H]1O` [Substance 3, 15-dehydro-17-phenyl-18,19,20-trinor-PGF2α-isopropylester]: in the series on rabbit eye, the “Conjunctival hyperemia, in words” value is recorded as “advantageous in this respect” and the Degree of hyperemia is 0.7 ± 0.3. In the series on healthy human volunteers [1], the “Effect on intraocular pressure, in words” value is “significantly reduced the intraocular pressure”; the “Intraocular pressure, time after administration 0 hours” value was found to be 17.7 ± 0.6 mmHg; the “Intraocular pressure, time after administration 4 hours” value is reported as 14.6 ± 0.2 mmHg; the “Intraocular pressure, time after administration 6 hours” value is on record as 13.6 ± 0.7 mmHg. Further, in the series with healthy human volunteers [2], the “Irritating effect (ocular discomfort), in words” value (from here on “Irritating effect”) is reported as “none of the compounds had any significant irritating effect” and the “Conjunctival/episcleral hyperemia, in words” value was “very little if any conjunctival/episcleral hyperemia”.

As to “16-phenyl-17,18,19,20-tetranor-PGF2α-isopropylester [Substance 1]”, the Degree of hyperemia in the series on rabbit eye worked out at 1.3 ± 0.9. In the series on cynomolgus monkeys, the “Intraocular pressure, time after administration 0 hours” value is listed as “E 12.7 ± 1.1 mmHg”; the “Intraocular pressure, time after administration 1–2 hours” value is given as 11.8 ± 1.1 mmHg; the “Intraocular pressure, time after administration 3–4 hours” value is given as 9.1 ± 0.8 mmHg; the “Intraocular pressure, time after administration 6 hours” value was 8.4 ± 0.7. mmHg. Also, the “Intraocular pressure lowering effect, in words” value with cynomolgus monkeys is given as “reduced the intraocular pressure”. In addition, in the series with cat eye, the “Ocular irritation (discomfort), in words” value is recorded as “irritating”. Besides, in the series with cat eye (listed as 16-phenyl-17,18,19,20-tetranor-PGF2α-IE), the “Ocular irritation (discomfort), in words” value is given as “clear ocular discomfort”.

`CCCCC[C@H](O)/C=C/[C@@H]1[C@@H](C/C=C\CCCC(=O)OC(C)C)[C@@H](O)C[C@H]1O` [PGF2α-isopropylester, reference compound] returned a Degree of hyperemia in the series on rabbit eye of 2.8 ± 0.2. For the same compound, in the series on cynomolgus monkeys, the “Intraocular pressure, time after administration 0 hours” value is listed as “E 11.4 ± 0.7 mmHg”; the “Intraocular pressure, time after administration 1–2 hours” value is given as 8.3 ± 0.5 mmHg; the “Intraocular pressure, time after administration 3–4 hours” value amounted to 8.0 ± 0.6 mmHg; the “Intraocular pressure, time after administration 6 hours” value was found to be 9.3 ± 0.8 mmHg.

For the compound `CCCCCC(C=CC1C(O)CC(=O)C1CC=CCCCC(=O)OC(C)C)OC(=O)CC` (stereo not shown) [15-propionate-PGE2-IE, reference compound], the Degree of hyperemia in the series on rabbit eye is 2.7 ± 0.3.

In turn, `CC(C)OC(=O)CCC/C=C\C[C@H]1C(=O)C[C@@H](O)[C@@H]1/C=C/[C@@H](O)CCc1ccccc1` [Substance 5, 17-phenyl-18,19,20-trinor-PGE2-isopropylester] returned a Degree of hyperemia in the series with rabbit eye of 2.7 ± 0.2. In the series on cat eye, the “Ocular irritation (discomfort), in words” value is reported as “no or very little irritating effect”.

Consider “18-phenyl-19,20-dinor-PGF2α-isopropylester [Substance 10]”, for which, in the series with cynomolgus monkeys, the “Intraocular pressure, time after administration 0 hours” value is recorded as “E 9.7 ± 0.9 mmHg”; the “Intraocular pressure, time after administration 1–2 hours” value was determined as 9.6 ± 1.1 mmHg; the “Intraocular pressure, time after administration 3–4 hours” value came out at 9.6 ± 0.7 mmHg; the “Intraocular pressure, time after administration 6 hours” value is 8.8 ± 0.9 mmHg. Moreover, the “Intraocular pressure lowering effect, in words” value with cynomolgus monkeys is reported as “reduced the intraocular pressure”. Also, in the series on healthy human volunteers [1], the “Effect on intraocular pressure, in words” value is given as “significantly reduced the intraocular pressure”; the “Intraocular pressure, time after administration 0 hours” value was found to be 14.4 ± 1.0 mmHg; the “Intraocular pressure, time after administration 4 hours” value amounted to 12.2 ± 1.1 mmHg; the “Intraocular pressure, time after administration 6 hours” value is given as 12.4 ± 1.2 mmHg. The “Intraocular pressure, time after administration 8 hours” value with healthy human volunteers [1] is on record as 11.9 ± 0.7 mmHg. For the same compound, the “Irritating effect” value with healthy human volunteers [2] was “none of the compounds had any significant irritating effect”.

As for `CC(C)OC(=O)CCC/C=C\C[C@H]1C(=O)C=C[C@@H]1CC[C@@H](O)CCc1ccccc1` [Substance 6, 13,14-dihydro-17-phenyl-18,19,20-trinor-PGA2-isopropylester], in the series with rabbit eye, the “Conjunctival hyperemia, in words” value is “advantageous in this respect” and the Degree of hyperemia is 0.3 ± 0.3. The “Ocular irritation (discomfort), in words” value in the series with cat eye is listed as “no or very little irritating effect”.

Take “19-phenyl-20-nor-PGF2α-isopropylester [Substance 20]”: in the series on cat eyes, the “Intraocular pressure, time after administration 0 hours” value is reported as “E 16.9 ± 1.0 mmHg”; the “Intraocular pressure, time after administration 1–2 hours” value came out at 16.6 ± 0.7 mmHg; the “Intraocular pressure, time after administration 3–4 hours” value amounted to 15.8 ± 0.8 mmHg; the “Intraocular pressure, time after administration 6 hours” value worked out at 18.1 ± 1.2 mmHg. Further, the “Intraocular pressure lowering effect, in words” value with cat eyes was “reduced the intraocular pressure”.

With `CC(C)OC(=O)CCC/C=C\C[C@@H]1[C@@H](/C=C/[C@H](O)CCc2ccccc2)[C@H](O)C[C@@H]1O` [Substance 7, 15-(R)-17-phenyl-18,19,20-trinor-PGF2α-isopropylester], the Degree of hyperemia in the series on rabbit eye was found to be 2.0 ± 0.0. In addition, in the series on healthy human volunteers [1], the “Effect on intraocular pressure, in words” value is recorded as “significantly reduced the intraocular pressure”; the “Intraocular pressure, time after administration 0 hours” value stood at 12.9 ± 0.9 mmHg; the “Intraocular pressure, time after administration 4 hours” value came to 11.8 ± 0.6 mmHg; the “Intraocular pressure, time after administration 6 hours” value was 11.0 ± 0.3 mmHg. Moreover, the “Intraocular pressure, time after administration 8 hours” value with healthy human volunteers [1] stood at 11.2 ± 1.3 mmHg. The “Irritating effect” value with healthy human volunteers [2] is on record as “none of the compounds had any significant irritating effect”.

With `CC(C)OC(=O)CCC/C=C\C[C@@H]1[C@@H](/C=C/[C@@H](O)CCc2ccccc2)[C@H](O)C[C@@H]1O` [Substance 2, 17-phenyl-18,19,20-trinor-PGF2α-isopropylester], the Degree of hyperemia in the series with rabbit eye amounted to 2.0 ± 0.3. Besides, in the series on cynomolgus monkeys, the “Intraocular pressure, time after administration 0 hours” value is on record as “E 12.8 ± 0.6 mmHg”; the “Intraocular pressure, time after administration 1–2 hours” value came to 11.9 ± 0.5 mmHg; the “Intraocular pressure, time after administration 3–4 hours” value is 8.6 ± 0.3 mmHg; the “Intraocular pressure, time after administration 6 hours” value was 9.5 ± 0.7 mmHg. For the same compound, in the series on cynomolgus monkeys, the “Intraocular pressure lowering effect, in words” value was “retained IOP lowering effect”. Moreover, in the series on healthy human volunteers [1], the “Effect on intraocular pressure, in words” value is reported as “significantly reduced the intraocular pressure”; the “Intraocular pressure, time after administration 0 hours” value is 11.9 ± 1.7 mmHg; the “Intraocular pressure, time after administration 4 hours” value is listed as 11.0 ± 0.9 mmHg; the “Intraocular pressure, time after administration 6 hours” value came to 10.1 ± 0.7 mmHg. In addition, the “Intraocular pressure, time after administration 8 hours” value in the series on healthy human volunteers [1] is recorded as 9.8 ± 0.7 mmHg. Besides, the “Ocular irritation (discomfort), in words” value in the series on cat eye is “complete loss of ocular irritation”. Further, the “Irritating effect” value in the series on healthy human volunteers [2] was “none of the compounds had any significant irritating effect”.

As to `CC(C)OC(=O)CCC/C=C\C[C@@H]1[C@@H](CC[C@@H](O)CCc2ccccc2)[C@H](O)C[C@@H]1O` [Substance 9, 13,14-dihydro-17-phenyl-18,19,20-trinor-PGF2α-isopropylester], in the series with rabbit eye, the “Conjunctival hyperemia, in words” value is “advantageous in this respect” and the Degree of hyperemia is 1.3 ± 0.3. Besides, in the series with cynomolgus monkeys, the “Intraocular pressure, time after administration 0 hours” value was “E 11.1 ± 0.9 mmHg”; the “Intraocular pressure, time after administration 1–2 hours” value is listed as 8.3 ± 0.6 mmHg; the “Intraocular pressure, time after administration 3–4 hours” value is on record as 6.9 ± 0.4 mmHg; the “Intraocular pressure, time after administration 6 hours” value amounted to 7.7 ± 0.8 mmHg. Also, in the series on healthy human volunteers [1], the “Effect on intraocular pressure, in words” value was “significantly reduced the intraocular pressure”; the “Intraocular pressure, time after administration 0 hours” value came out at 14.2 ± 0.5 mmHg; the “Intraocular pressure, time after administration 4 hours” value was found to be 13.3 ± 1.1 mmHg; the “Intraocular pressure, time after administration 6 hours” value came to 12.2 ± 0.4 mmHg. Besides, the “Intraocular pressure, time after administration 8 hours” value in the series on healthy human volunteers [1] stood at 12.5 ± 0.9 mmHg. In addition, in the series on healthy human volunteers [2], the “Irritating effect” value is given as “none of the compounds had any significant irritating effect” and the “Conjunctival/episcleral hyperemia, in words” value was “very little if any conjunctival/episcleral hyperemia”.

Turning to `CC(C)OC(=O)CCC/C=C\C[C@@H]1[C@@H](/C=C/[C@@H](O)COc2ccccc2)[C@H](O)C[C@@H]1O` [Substance 4, 16-phenoxy-17,18,19,20-tetranor-PGF2α-isopropylester], in the series on cat eyes, the “Intraocular pressure, time after administration 0 hours” value was “E 20.5 ± 1.2 mmHg”; the “Intraocular pressure, time after administration 1–2 hours” value amounted to 25.7 ± 1.2 mmHg; the “Intraocular pressure, time after administration 3–4 hours” value turned out to be 19.2 ± 1.8 mmHg; the “Intraocular pressure, time after administration 6 hours” value worked out at 15.0 ± 1.2 mmHg. In the series on cat eyes, the “Intraocular pressure lowering effect, in words” value is given as “effectively lowers the intraocular pressure”.
